Data: patent US10548910B2, “Amido-substituted pyridotriazine derivatives useful as HIV integrase inhibitors” (priority 2015, dated 2020)
Read-outs that look alike come from different tables or passages of the source.

Tested on: HIV-1
Test: HIV-1 infection assay (MT4-GFP cells, inhibition of reproductive ratio R0)
Type: cell-based
Protocol: Assessing Antiviral Potency Using An HIV-1 Infection Assay
HIV-1 replication was monitored using MT4-gag-GFP clone D3 (hereafter designate MT4-GFP), which are MT-4 cells modified to harbor a GFP reporter gene, the expression of which is dependent on the HIV-1 expressed proteins tat and rev. Productive infection of an MT4-GFP cell with HIV-1 results in GFP expression approximately 24 h post-infection.
MT4-GFP cells were maintained at 37° C./5% CO2/90% relative humidity in RPMI 1640 supplemented with 10% fetal bovine serum, 100 U/ml penicillin/streptomycin, and 400 μg/ml G418 to maintain the reporter gene. For infections, MT4-GFP cells were placed in the same medium lacking G418 and infected overnight with H9IIIB or NL4-3 virus at an approximate multiplicity of infection of 0.01 in the same incubation conditions. Cells were then washed and resuspended in either RPMI 1640 containing no serum at 1.6×10^5 cells/mL (serum free conditions), 10% normal human serum at 1.6×10^5 cells/mL (10% NHS conditions) or in 100% normal human serum at 2×10^5 cells/mL (100% NHS conditions). Compound plates were prepared by dispensing compounds taken up in DMSO into wells of 384 well poly D lysine-coated plates (0.2 μl/well) using an ECHO acoustic dispenser. Each compound was tested in a 10 point serial 3-fold dilution (typical final concentrations: 4.2 μM-0.21 nM). Controls included no inhibitor (DMSO only) and a combination of three antiviral agents (efavirenz, indinavir, and the integrase strand transfer inhibitor L-002254051 at final concentrations of 4 μM each). Cells were added (50 μL/well) to compound plates and the infected cells were maintained at 37° C./5% CO2/90% relative humidity.
Infected cells were quantified at two time points, ˜48 h and ˜72 h post-infection, by counting the number of green cells in each well using an Acumen eX3 scanner. The increase in the number of green cells over ˜24 h period gives the reproductive ratio, R0, which is typically 5-15 and has been shown experimentally to be in logarithmic phase (data not shown). Inhibition of R0 is calculated for each well, and IC50 value was determined using non-linear 4-parameter curve fitting.

[1] = MT4-GFP cells infected with H9IIIB or NL4-3 virus, 0% NHS (serum free conditions), read-out: VIKING IP (nM) with 0% NHS
[2] = MT4-GFP cells infected with H9IIIB or NL4-3 virus, 100% normal human serum, read-out: VIKING IP (nM) with 100% NHS
[3] = Human immunodeficiency virus 1, NL43, MT4-GFP cells infected with H9IIIB or NL4-3 virus, 0% NHS (serum free conditions), read-out: VIKING IP (nM) with 0% NHS
[4] = Human immunodeficiency virus 1, NL43, MT4-GFP cells infected with H9IIIB or NL4-3 virus, 100% normal human serum, read-out: VIKING IP (nM) with 100% NHS

CN1C(=O)c2c(O)c(=O)c(C(=O)NCc3ccc(F)cc3F)cn2N(C)C12CC[C@H](P(=O)(O)O)C2 (single isomer, unassigned) [Compound 22] showed an IC50 [1] of 120 nM and an IC50 [2] of 340 nM.
Work on CC(C)OC(=O)OCOP(=O)(OCOC(=O)OC(C)C)[C@H]1CCC2(C1)N(C)C(=O)c1c(O)c(=O)c(C(=O)NCc3ccc(F)cc3F)cn1N2C (single isomer, unassigned) [Compound 23] yielded an IC50 [1] of 0.28 nM and an IC50 [2] of 3.6 nM.
CCOP(=O)(OCC)[C@H]1CCC2(C1)N(C)C(=O)c1c(O)c(=O)c(C(=O)NCc3ccc(F)cc3F)cn1N2C (single isomer, unassigned) [Compound 24] showed an IC50 [3] of 9.1 nM and an IC50 [4] of 4120 nM.
In the case of CN1C(=O)c2c(O)c(=O)c(C(=O)NCc3ccc(F)cc3F)cn2N(C)C12CC[C@H](P(=O)(O)O)C2 (single isomer, unassigned) [Compound 25], the IC50 [3] is reported as 190 nM and the IC50 [2] is reported as 1070 nM.
In the case of CC(C)OC(=O)OCOP(=O)(OCOC(=O)OC(C)C)[C@H]1CCC2(C1)N(C)C(=O)c1c(O)c(=O)c(C(=O)NCc3ccc(F)cc3F)cn1N2C (single isomer, unassigned) [Compound 26], the IC50 [1] is reported as 1 nM and the IC50 [2] is reported as 35.9 nM.
Work on CCOP(=O)(OCC)[C@@H]1CCC2(C1)N(C)C(=O)c1c(O)c(=O)c(C(=O)NCc3ccc(F)cc3F)cn1N2C (single isomer, unassigned) [Compound 27] yielded an IC50 [1] of 5.6 nM and an IC50 [2] of 78.2 nM.
In the case of CN1C(=O)c2c(O)c(=O)c(C(=O)NCc3ccc(F)cc3F)cn2N(C)C12CC[C@@H](P(=O)(O)O)C2 (single isomer, unassigned) [Compound 28], the IC50 [3] is reported as 221 nM and the IC50 [2] is reported as 420 nM.
Compound CC(C)OC(=O)OCOP(=O)(OCOC(=O)OC(C)C)[C@@H]1CCC2(C1)N(C)C(=O)c1c(O)c(=O)c(C(=O)NCc3ccc(F)cc3F)cn1N2C (single isomer, unassigned) [Compound 29] has an IC50 [4] of 4.8 nM and an IC50 [1] of 0.2 nM.
CCOP(=O)(OCC)[C@@H]1CCC2(C1)N(C)C(=O)c1c(O)c(=O)c(C(=O)NCc3ccc(F)cc3F)cn1N2C (single isomer, unassigned) [Compound 30] gave an IC50 [1] of 13.7 nM and an IC50 [2] of 1050 nM.
In the case of CN1C(=O)c2c(O)c(=O)c(C(=O)NCc3ccc(F)cc3F)cn2N(C)C12CC[C@@H](P(=O)(O)O)C2 (single isomer, unassigned) [Compound 31], the IC50 [1] is reported as 206 nM and the IC50 [2] is reported as 1070 nM.
CC(C)OC(=O)OCOP(=O)(OCOC(=O)OC(C)C)[C@@H]1CCC2(C1)N(C)C(=O)c1c(O)c(=O)c(C(=O)NCc3ccc(F)cc3F)cn1N2C (single isomer, unassigned) [Compound 32] showed an IC50 [1] of 0.9 nM and an IC50 [2] of 7 nM.
CCOP(=O)(CCN1n2cc(C(=O)NCc3ccc(F)cc3F)c(=O)c(O)c2C(=O)N(C)C12CCCC2)OCC [Compound 2] gave an IC50 [3] of 2.8 nM and an IC50 [4] of 81.1 nM.
CN1C(=O)c2c(O)c(=O)c(C(=O)NCc3ccc(F)cc3F)cn2N(CCP(=O)(O)O)C12CCCC2 [Compound 4] gave an IC50 [3] of 32.2 nM and an IC50 [4] of 2750 nM.
For CC(C)OC(=O)OCOP(=O)(CCN1n2cc(C(=O)NCc3ccc(F)cc3F)c(=O)c(O)c2C(=O)N(C)C12CCCC2)OCOC(=O)OC(C)C [Compound 7], the IC50 [3] was 0.2 nM and the IC50 [4] was 2.1 nM.
Compound CC(C)OC(=O)OCOP(=O)(O)CCN1n2cc(C(=O)NCc3ccc(F)cc3F)c(=O)c(O)c2C(=O)N(C)C12CCCC2 [Compound 8] has an IC50 [3] of 2.3 nM and an IC50 [4] of 660 nM.
CCN1C(=O)c2c(O)c(=O)c(C(=O)NCc3ccc(F)cc3F)cn2N(CCP(=O)(N[C@@H](C)C(=O)OC(C)C)Oc2ccccc2)C12CCCC2 (stereo partly shown) [Compound 9] was tested, and the IC50 (Human immunodeficiency virus 1, NL43, read-out: VIKING IP (nM) with 0% NHS) was 3.8 nM.
CCOP(=O)(OCC)[C@H]1CCC2(C1)N(C)C(=O)c1c(O)c(=O)c(C(=O)NCc3ccc(F)cc3F)cn1N2C (stereo partly shown) [Compound 21] showed an IC50 [3] of 5.3 nM and an IC50 [4] of 32.7 nM.
CCOP(=O)(CCN1n2cc(C(=O)NCc3ccc(F)cc3F)c(=O)c(O)c2C(=O)N(CC)C12CCCC2)OCC [Compound 33] was tested, and the IC50 [3] was 4.4 nM and the IC50 [4] was 163 nM.
In the case of CCN1C(=O)c2c(O)c(=O)c(C(=O)NCc3ccc(F)cc3F)cn2N(CCP(=O)(O)O)C12CCCC2 [Compound 34], the IC50 [3] is reported as 15.4 nM and the IC50 [4] is reported as 2490 nM.
CCOP(=O)(OCC)C1CCC2(C1)N(CC)C(=O)c1c(O)c(=O)c(C(=O)NCc3ccc(F)cc3F)cn1N2C (stereo not shown) [Compound 35] showed an IC50 [3] of 9.4 nM and an IC50 [4] of 126 nM.
CCN1C(=O)c2c(O)c(=O)c(C(=O)NCc3ccc(F)cc3F)cn2N(C)C12CCC(P(=O)(O)O)C2 (stereo not shown) [Compound 36] showed an IC50 [3] of 187 nM and an IC50 [4] of 583 nM.
CCN1C(=O)c2c(O)c(=O)c(C(=O)NCc3ccc(F)cc3F)cn2N(C)C12CCC(P(=O)(OCOC(=O)OC(C)C)OCOC(=O)OC(C)C)C2 (stereo not shown) [Compound 37] showed an IC50 [3] of 0.2 nM and an IC50 [4] of 2.8 nM.
